target: C5aR (Homo sapiens (Human), UniProt P21730); assay: Chemotaxis assay using U937 cells (C5aR mediated migration); assay type: cell-based; settings: read-out: Mig IC50
Outline: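 Migration toward 0.03 nM C5a, mixed with varying compound in the lower chamber (HBSS with 1% FBS), was measured over 1.5 h at 37° C through 5 μm filters. Upper chamber held 100,000 U937 cells treated overnight with 0.5 mM cAMP; migrated cells quantified by counts or CyQuant for IC50, SDF-1α as specificity control.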

Chain of C5aR (P21730 whole entry): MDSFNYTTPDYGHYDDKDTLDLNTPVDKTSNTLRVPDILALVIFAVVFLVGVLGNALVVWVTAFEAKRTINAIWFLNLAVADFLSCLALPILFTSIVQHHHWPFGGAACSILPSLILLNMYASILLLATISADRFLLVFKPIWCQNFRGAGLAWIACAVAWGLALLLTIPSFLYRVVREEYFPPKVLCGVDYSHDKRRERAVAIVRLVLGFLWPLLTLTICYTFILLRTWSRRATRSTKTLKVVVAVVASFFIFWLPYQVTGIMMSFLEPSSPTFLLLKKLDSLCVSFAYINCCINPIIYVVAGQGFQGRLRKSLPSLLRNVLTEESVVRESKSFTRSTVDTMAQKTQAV

IC50 | SMILES
5 to 50 nM | CCc1cccc(CC)c1-n1nc2c(c1-c1ccc(NC(N)=O)cc1)CN(Cc1cc(Cl)ccc1C(F)(F)F)CC2 [Example 1.292]
5 to 50 nM | Cc1cccc(OCC(C)C)c1-n1nc2c(c1-c1ccc(NC(N)=O)cc1)CN(c1ccc(C(F)(F)F)cc1Cl)CC2 [Example 1.375]
5 to 50 nM | Cc1cnc(C(C)C)cc1N1CCc2nn(-c3c(C)cccc3OCC(C)C)c(-c3ccc(NC(N)=O)cc3)c2C1 [Example 1.348]
≤ 5 nM | Cc1ccc(C(C)(C)C)cc1N1CCc2nn(-c3c(C)cccc3CC(C)C)c(-c3ccc(NC(N)=O)cc3)c2C1 [Example 1.401]
5 to 50 nM | Cc1cccc(OCC(C)C)c1-n1nc2c(c1-c1ccc(NC(N)=O)cc1)CN(Cc1cc(Cl)ccc1OC(C)C)CC2 [Example 1.280]
≤ 5 nM | Cc1cc(C)c(CN2CCc3nn(-c4c(C)cccc4OCC(C)C)c(-c4ccc(NC(N)=O)cc4)c3C2)c(C)c1 [Example 1.365]
> 500 nM | Cc1cccc(OCC(C)C)c1-n1nc2c(c1-c1ccc(NC(N)=O)cc1)CN(C(=O)Cc1ccccc1)CC2 [Example 1.430]
5 to 50 nM | CCc1cccc(CC)c1-n1nc2c(c1-c1ccc(NC(N)=O)cc1)CN(Cc1ccc(Cl)cc1C(F)(F)F)CC2 [Example 1.278]
5 to 50 nM | Cc1ccc(C(C)(C)C)cc1N1CCc2nn(-c3c(C)cccc3CCC(C)C)c(-c3ccc(NC(N)=O)cc3)c2C1 [Example 1.387]
≤ 5 nM | Cc1cccc(Cl)c1CN1CCc2nn(-c3c(C)cccc3OCC(C)C)c(-c3ccc(NC(N)=O)cc3)c2C1 [Example 1.359]
5 to 50 nM | CCc1cccc(CC)c1-n1nc2c(c1-c1ccc(NC(N)=O)cc1)CN(C(CC)c1ccccc1C(F)(F)F)CC2 (centres unmarked) [Example 1.286]
5 to 50 nM | Cc1cc(C(C)C)cnc1N1CCc2nn(-c3c(C)cccc3OCC(C)C)c(-c3ccc(NC(N)=O)cc3)c2C1 [Example 1.355]
50 to 500 nM | COc1cccc(C)c1-n1nc2c(c1-c1ccc(N)cc1)CN(c1cc(C(C)(C)C)ccc1C)CC2 [Example 1.469]
5 to 50 nM | Cc1cccc(OCC(C)C)c1-n1nc2c(c1-c1ccc(NC(N)=O)cc1)CN(c1cc(C(C)(C)C)ccn1)CC2 [Example 1.395]
50 to 500 nM | Cc1cccc(OCC(C)C)c1-n1nc2c(c1-c1ccc(NC(N)=O)cc1)CN(CC(C)C)CC2 [Example 1.385]
50 to 500 nM | Cc1cccc(OCC(C)C)c1-n1nc2c(c1-c1ccc(NC(N)=O)cc1)CN(C(=O)C(C)(C)C)CC2 [Example 1.436]
5 to 50 nM | COc1cccc(C)c1-n1nc2c(c1-c1ccc(NC(N)=O)cc1)CN(c1cc(C(C)(C)C)ccc1C)CC2 [Example 1.462]

IC50 | SMILES
≤ 5 nM | CCc1cccc(CC)c1-n1nc2c(c1-c1ccc(NC(N)=O)c(F)c1)CN(CC1CCCC1)CC2 [Example 1.243]
≤ 5 nM | Cc1cc(NC(N)=O)ccc1-c1c2c(nn1-c1c(C)cccc1OCC(C)C)CCN(c1cc(C(C)(C)C)ccc1C)C2 [Example 1.441]
> 500 nM | Cc1cccc(OCC(C)C)c1-n1nc2c(c1-c1ccc(NC(N)=O)cc1)CN(CC(C)(C)O)CC2 [Example 1.389]
≤ 5 nM | Cc1cccc(OCC(C)C)c1-n1nc2c(c1-c1ccc(NC(N)=O)c(F)c1)CN(c1ncc(C(F)(F)F)cc1Cl)CC2 [Example 1.276]
5 to 50 nM | Cc1cccc(OCC(C)C)c1-n1nc2c(c1-c1ccc(N)cc1)CN(c1ccccc1C(C)(C)C)CC2 [Example 1.455]
50 to 500 nM | Cc1cccc(OCC(C)C)c1-n1nc2c(c1-c1ccc(NC(N)=O)cc1)CN(CC(C)(C)C#N)CC2 [Example 1.349]
≤ 5 nM | Cc1cccc(OCC(C)C)c1-n1nc2c(c1-c1ccc(NC(N)=O)cc1)CN(CC(C)(C(F)(F)F)C(F)(F)F)CC2 [Example 1.344]
50 to 500 nM | COc1cccc(F)c1-n1nc2c(c1-c1ccc(NC(N)=O)cc1)CN(c1cc(C(C)(C)C)ccc1C)CC2 [Example 1.451]
5 to 50 nM | COc1ccc(Cl)c(CN2CCc3nn(-c4c(C)cccc4OCC(C)C)c(-c4ccc(NC(N)=O)cc4)c3C2)c1 [Example 1.302]
> 500 nM | CCc1cccc(CC)c1-n1nc2c(c1-c1ccc(NC(N)=O)cc1)CN(Cc1ccccn1)CC2 [Example 1.283]
≤ 5 nM | Cc1cccc(OCC(C)C)c1-n1nc2c(c1-c1ccc(NC(N)=O)cc1)CN(Cc1cc(F)ccc1Cl)CC2 [Example 1.320]
50 to 500 nM | Cc1cccc(C(C)C)c1-n1nc2c(c1-c1ccc(NC(N)=O)cc1)CN(C(=O)OC(C)(C)C)CC2 [Example 1.428]
5 to 50 nM | CCc1cccc(CC)c1-n1nc2c(c1-c1ccc(NC(N)=O)cc1)CN(CC(C)(C)C(F)(F)F)CC2 [Example 1.285]
5 to 50 nM | Cc1ccc(C(C)(C)C)cc1N1CCc2nn(-c3c(C)cccc3C)c(-c3ccc(O)cc3)c2C1 [Example 1.452]
≤ 5 nM | Cc1cc(NC(N)=O)ccc1-c1c2c(nn1-c1c(C)cccc1C)CCN(c1ccccc1C(C)C)C2 [Example 1.463]
≤ 5 nM | Cc1ccc(CN2CCc3nn(-c4c(C)cccc4OCC(C)C)c(-c4ccc(NC(N)=O)cc4)c3C2)c(Cl)c1 [Example 1.312]

Continued, compound first:

SMILES | IC50
Cc1cccc(OCC(C)C)c1-n1nc2c(c1-c1cc(F)c(NC(N)=O)cc1F)CN(c1ncccc1C(C)C)CC2 [Example 1.191] | ≤ 5 nM
NC(=O)Nc1cc(F)c(-c2c3c(nn2-c2c(F)cccc2F)CCN(c2ncc(Cl)cc2Cl)C3)cc1F [Example 1.183] | 5 to 50 nM
Cc1cccc(C)c1-n1nc2c(c1-c1cc(F)c(NC(N)=O)cc1F)CN(Cc1ccc(Cl)cc1C(F)(F)F)CC2 [Example 1.061] | ≤ 5 nM
COc1cccc(F)c1-n1nc2c(c1-c1cc(F)c(NC(N)=O)cc1F)CN(c1ncc(Cl)cc1Cl)CC2 [Example 1.179] | 5 to 50 nM
Cc1cccc(C)c1-n1nc2c(c1-c1cc(F)c(NC(N)=O)cc1F)CN(c1ncc(C(C)C)cc1F)CC2 [Example 1.165] | ≤ 5 nM
Cc1cc(NC(N)=O)c(F)cc1-c1c2c(nn1-c1c(C)cccc1C)CCN(c1ccc(C(F)(F)F)cc1F)C2 [Example 1.117] | ≤ 5 nM
CC(C)COc1cccc(F)c1-n1nc2c(c1-c1cc(F)c(NC(N)=O)cc1F)CN(c1ncc(Cl)cc1Cl)CC2 [Example 1.188] | ≤ 5 nM
Cc1cccc(C)c1-n1nc2c(c1-c1cc(F)c(NC(N)=O)cc1F)CN(c1ccc(C(C)(C)C)cc1Cl)CC2 [Example 1.098] | ≤ 5 nM
Cc1cccc(C)c1-n1nc2c(c1-c1cc(F)c(NC(N)=O)cc1F)CN(C(C)(C)CO)CC2 [Example 1.088] | > 500 nM
Cc1cnc(N2CCc3nn(-c4c(C)cccc4OCC(C)C)c(-c4ccc(NC(N)=O)c(F)c4)c3C2)c(F)c1 [Example 1.224] | ≤ 5 nM
CCC(C)(C)N1CCc2nn(-c3c(C)cccc3OCC(C)C)c(-c3cc(F)c(NC(N)=O)cc3F)c2C1 [Example 1.214] | ≤ 5 nM
CCc1cccc(CC)c1-n1nc2c(c1-c1cc(F)c(NC(N)=O)cc1F)CN(Cc1cccn(C)c1=O)CC2 [Example 1.041] | > 500 nM
CC[C@@H](c1ccccc1)N1CCc2nn(-c3c(C)cccc3C)c(-c3ccc(NC(N)=O)cc3F)c2C1 [Example 1.081] | 5 to 50 nM
Cc1cccc(OCC(C)C)c1-n1nc2c(c1-c1ccc(NC(N)=O)c(F)c1)CN(C(C)CC(C)C)CC2 (centres unmarked) [Example 1.239] | ≤ 5 nM
Cc1cccc(OCC(C)C)c1-n1nc2c(c1-c1ccc(NC(N)=O)c(F)c1)CN(S(=O)(=O)c1ccccc1C(F)(F)F)CC2 [Example 1.229] | 5 to 50 nM
CCc1cccc(CC)c1-n1nc2c(c1-c1cc(F)c(NC(N)=O)cc1F)CN(CCCC(F)(F)F)C(C)(C)C2 [Example 1.008] | ≤ 5 nM

SMILES | IC50
CCc1cccc(CC)c1-n1nc2c(c1-c1cc(F)c(NC(N)=O)cc1F)CN(Cc1cc(C(F)(F)F)ccc1C(F)(F)F)CC2 [Example 1.055] | ≤ 5 nM
COc1cc(NC(N)=O)c(F)cc1-c1c2c(nn1-c1c(C)cccc1C)CCN(c1ccc(C(F)(F)F)cc1F)C2 [Example 1.111] | ≤ 5 nM
Cc1cccc(C)c1-n1nc2c(c1-c1cc(F)c(NC(N)=O)cc1F)CN(C(CC(C)(C)O)c1ccccc1)CC2 (centres unmarked) [Example 1.071] | 5 to 50 nM
CCc1cccc(CC)c1-n1nc2c(c1-c1cc(F)c(NC(N)=O)cc1F)CN(C(=O)C(C)C)CC2 [Example 1.030] | 5 to 50 nM
Cc1cccc(C)c1-n1nc2c(c1-c1cc(F)c(NC(N)=O)cc1F)CN(C(C)(C)c1ccccc1)CC2 [Example 1.146] | ≤ 5 nM
CCC(c1ccccc1)N1CCc2nn(-c3c(C)cccc3C)c(-c3cc(F)c(NC(N)=O)cc3F)c2C1 (centres unmarked) [Example 1.096] | ≤ 5 nM
CCc1cccc(CC)c1-n1nc2c(c1-c1cc(F)c(NC(N)=O)cc1F)CN(Cc1cc(C(F)(F)F)ccc1C(F)(F)F)C(C)(C)C2 [Example 1.011] | ≤ 5 nM
Cc1cccc(OCC(C)C)c1-n1nc2c(c1-c1cc(F)c(NC(N)=O)cc1F)CN(C(C)(C)c1ccccc1)CC2 [Example 1.207] | ≤ 5 nM
Cc1cccc(OCC(C)C)c1-n1nc2c(c1-c1ccc(NC(N)=O)c(F)c1)CN(S(=O)(=O)c1ccccc1)CC2 [Example 1.237] | 5 to 50 nM
CC(C)COc1cccnc1-n1nc2c(c1-c1cc(F)c(NC(N)=O)cc1F)CN(c1ncc(Cl)cc1Cl)CC2 [Example 1.171] | 5 to 50 nM
Cc1cccc(C)c1-n1nc2c(c1-c1cc(F)c(NC(N)=O)cc1F)CN(c1ncccc1Cl)CC2 [Example 1.127] | ≤ 5 nM
NC(=O)Nc1cc(F)c(-c2c3c(nn2-c2c(Cl)cccc2Cl)CCN(c2ncc(Cl)cc2Cl)C3)cc1F [Example 1.187] | 5 to 50 nM
CCc1cccc(CC)c1-n1nc2c(c1-c1cc(F)c(NC(N)=O)cc1F)CN(Cc1ccc(C(F)(F)F)cc1C)CC2 [Example 1.064] | ≤ 5 nM
CCc1cccc(CC)c1-n1nc2c(c1-c1cc(F)c(NC(N)=O)cc1F)CN(C(C)(C)c1cccc(OC)c1)CC2 [Example 1.156] | ≤ 5 nM
CCc1cccc(CC)c1-n1nc2c(c1-c1cc(F)c(NC=O)cc1F)CN(Cc1ccc(C(F)(F)F)cc1C(F)(F)F)CC2 [Example 1.003] | ≤ 5 nM
CCc1cccc(CC)c1-n1nc2c(c1-c1cc(F)c(NC(N)=O)cc1F)CN(Cc1cn(C)nc1C(F)(F)F)CC2 [Example 1.075] | 5 to 50 nM
